pEC50: −log10 of the molar value. Where two headings read alike, the source gives them in different places. Each block holds one compound with its values, some of them ahead of it.
Key:
[1] = tested on: colorectal cancer (6 cell lines); experiment: CellTiter-Glo Viability Assay, colorectal cancer; type: cell-based; details: Homo sapiens, inhibition of cancer cell proliferation
DU4475 = experiment: CellTiter-Glo Viability Assay, breast cancer; type: cell-based; details: Homo sapiens, DU-4475, 96 h; DU4475, breast cancer, four days; read-out: EC50
MCF7 = experiment: CellTiter-Glo Viability Assay, breast cancer; type: cell-based; details: Homo sapiens, 96 h; MCF7, breast cancer, four days; read-out: EC50
T47D = experiment: CellTiter-Glo Viability Assay, breast cancer; type: cell-based; details: Homo sapiens, 96 h, breast cancer, four days, read-out: EC50
BT-549 = experiment: CellTiter-Glo Viability Assay, breast cancer; type: cell-based; details: Homo sapiens, 96 h; BT-549, breast cancer, four days; read-out: EC50
HCC1599 = experiment: CellTiter-Glo Viability Assay, breast cancer; type: cell-based; details: Homo sapiens, 96 h; HCC1599, breast cancer, four days; read-out: EC50
ZR-75-1 = experiment: CellTiter-Glo Viability Assay, breast cancer; type: cell-based; details: Homo sapiens, 96 h; ZR-75-1, breast cancer, four days; read-out: EC50
CAMA1 = experiment: CellTiter-Glo Viability Assay, breast cancer; type: cell-based; details: Homo sapiens, CAMA-1, 96 h; CAMA1, breast cancer, four days; read-out: EC50
MDA-MB-231-Luc = experiment: CellTiter-Glo Viability Assay, breast cancer; type: cell-based; details: Homo sapiens, 96 h; MDA-MB-231-Luc, breast cancer, four days; read-out: EC50
all 50 cell lines = experiment: CellTiter-Glo Viability Assay, average across all cell lines; type: cell-based; details: Homo sapiens; across all 50 cell lines; read-out: average EC50 for inhibition of cancer cell proliferation
Method in brief: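 Proliferation of a multi-tissue human cancer line panel is assessed over four days at 37° C and 5% CO2, seeding 300-3,000 cells/well. Viability is quantified by CellTiter-Glo luminescence, and EC50 values are calculated.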

[2] = tested on: liver cancer (3 cell lines); experiment: CellTiter-Glo Viability Assay, liver cancer; type: cell-based; details: Homo sapiens, inhibition of cancer cell proliferation
CLK3 = CLK3 (Homo sapiens, UniProt P49761); experiment: CLK3 kinase activity assay (Z-lyte, Ser/Thr 18 peptide)
Sequence of CLK3 (P49761 whole entry): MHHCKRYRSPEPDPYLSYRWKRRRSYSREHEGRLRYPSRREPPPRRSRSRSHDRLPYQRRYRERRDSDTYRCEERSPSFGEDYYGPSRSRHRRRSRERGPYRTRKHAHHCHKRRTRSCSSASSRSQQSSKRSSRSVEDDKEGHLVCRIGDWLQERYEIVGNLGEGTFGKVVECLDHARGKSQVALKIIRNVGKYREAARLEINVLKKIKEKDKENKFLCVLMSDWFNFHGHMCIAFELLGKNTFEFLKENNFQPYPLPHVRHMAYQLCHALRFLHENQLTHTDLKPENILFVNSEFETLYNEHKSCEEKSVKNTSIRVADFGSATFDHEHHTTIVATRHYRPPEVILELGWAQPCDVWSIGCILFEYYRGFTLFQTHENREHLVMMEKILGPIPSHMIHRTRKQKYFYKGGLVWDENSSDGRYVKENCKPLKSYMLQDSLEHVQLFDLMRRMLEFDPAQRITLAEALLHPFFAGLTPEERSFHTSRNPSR

[3] = tested on: ovarian cancer (4 cell lines); experiment: CellTiter-Glo Viability Assay, ovarian cancer; type: cell-based; details: Homo sapiens, inhibition of cancer cell proliferation
[4] = tested on: pancreatic cancer (8 cell lines); experiment: CellTiter-Glo Viability Assay, pancreatic cancer; type: cell-based; details: Homo sapiens, inhibition of cancer cell proliferation
CLK2 = biological target: T1, CLK2 (Homo sapiens, UniProt P49760); experiment: CLK2 kinase activity assay (Z-lyte, Ser/Thr 6 peptide); type: biochemical; details: recombinant CLK2 kinase, ATP 60 μM; read-out: EC50
T1 construct: purchased Thermo Fisher (Life Technologies), Z'-LYTE Kinase Assay Kits
T1 sequence (P49760 whole entry): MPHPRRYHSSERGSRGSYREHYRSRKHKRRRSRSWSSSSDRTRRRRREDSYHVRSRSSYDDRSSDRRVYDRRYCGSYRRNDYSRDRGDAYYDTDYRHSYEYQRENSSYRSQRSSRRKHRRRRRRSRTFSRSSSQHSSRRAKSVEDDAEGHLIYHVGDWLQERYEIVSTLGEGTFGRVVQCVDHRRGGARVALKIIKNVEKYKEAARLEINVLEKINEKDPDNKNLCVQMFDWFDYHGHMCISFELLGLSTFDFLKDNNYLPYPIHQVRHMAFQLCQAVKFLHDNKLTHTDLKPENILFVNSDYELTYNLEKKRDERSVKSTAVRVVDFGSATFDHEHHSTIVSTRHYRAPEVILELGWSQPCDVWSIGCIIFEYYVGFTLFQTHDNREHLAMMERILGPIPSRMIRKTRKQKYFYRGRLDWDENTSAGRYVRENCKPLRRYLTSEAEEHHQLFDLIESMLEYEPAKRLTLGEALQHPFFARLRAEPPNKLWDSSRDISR
Method: All reactions were performed in duplicate.

[5] = tested on: prostate cancer (5 cell lines); experiment: CellTiter-Glo Viability Assay, prostate cancer; type: cell-based; details: Homo sapiens
[6] = tested on: lung cancer (4 cell lines); experiment: CellTiter-Glo Viability Assay, lung cancer; type: cell-based; details: Homo sapiens, inhibition of cancer cell proliferation
[7] = tested on: haematopoietic & lymphoid tumors (13 cell lines); experiment: CellTiter-Glo Viability Assay, haematopoietic & lymphoid tumors; type: cell-based; details: Homo sapiens, inhibition of cancer cell proliferation
[8] = HCT-116, HCT116 cell line, read-out: Colorectal cancer, EC50 (μM) HCT116
[9] = HT-29, HT29 cell line, read-out: Colorectal cancer, EC50 (μM) HT29
[10] = SW-620, SW620 cell line, read-out: Colorectal cancer, EC50 (μM) SW620
[11] = DLD-1 cell line, read-out: Colorectal cancer, EC50 (μM) DLD-1
[12] = SW48 cell line, read-out: Colorectal cancer, EC50 (μM) SW48
[13] = SW480 cell line, read-out: Colorectal cancer, EC50 (μM) SW480
[14] = SNU-398, SNU398 cell line, read-out: Liver cancer, EC50 SNU398
[15] = HEPG2 cell line, read-out: Liver cancer, EC50 HEPG2
[16] = PLC/PRF/5 cell line, read-out: Liver cancer, EC50 PLC/PRF/5
[17] = PA-1, PA1 cell line, read-out: Ovarian cancer, EC50 (μM) PA1
[18] = TOV112D, TOV-112D cell line, read-out: Ovarian cancer, EC50 (μM) TOV-112D
[19] = OV-90 cell line, read-out: Ovarian cancer, EC50 (μM) OV-90
[20] = OVCAR-3 cell line, read-out: Ovarian cancer, EC50 (μM) OVCAR-3
[21] = BXPC-3, BxPC3 cell line, read-out: Pancreatic cancer, EC50 BxPC3
[22] = CAPAN-1, Capan1 cell line, read-out: Pancreatic cancer, EC50 Capan1
[23] = Capan-2, Capan2 cell line, read-out: Pancreatic cancer, EC50 Capan2
[24] = MIA PaCa-2 cell line, read-out: Pancreatic cancer, EC50 MIA PaCa-2
[25] = PANC 05.04 cell line, read-out: Pancreatic cancer, EC50 PANC 05.04
[26] = PANC-1 cell line, read-out: Pancreatic cancer, EC50 PANC-1
[27] = UPAFII cell line, read-out: Pancreatic cancer, EC50 UPAFII
[28] = DU-145, read-out: Prostate cancer EC50 Du-145
[29] = PC-3, PC3 cell line, inhibition of cancer cell proliferation, read-out: Prostate cancer EC50 PC3
[30] = 22Rv1 cell line, inhibition of cancer cell proliferation, read-out: Prostate cancer EC50 22Rv1
[31] = LNCap clone FGC cell line, inhibition of cancer cell proliferation, read-out: Prostate cancer EC50 LNCap clone FGC
[32] = VCaP (Sigma) cell line, inhibition of cancer cell proliferation, read-out: Prostate cancer EC50 VCaP (Sigma)
[33] = A-427, A427 cell line, read-out: Lung cancer, EC50 (μM) A427
[34] = HCC78, HCC-78 cell line, read-out: Lung cancer, EC50 (μM) HCC-78
[35] = NCI-H460 cell line, read-out: Lung cancer, EC50 (μM) NCI-H460
[36] = NCI-H522 cell line, read-out: Lung cancer, EC50 (μM) NCI-H522
[37] = DND41, DND-41 cell line, read-out: Haematopoietic & Lymphoid tumors, EC50 (μM) DND-41
[38] = MV4-11, MV-4-11 cell line, read-out: Haematopoietic & Lymphoid tumors, EC50 (μM) MV-4-11
[39] = Rec1, REC-1 cell line, read-out: Haematopoietic & Lymphoid tumors, EC50 (μM) REC-1
[40] = SU-DHL-4, SUDHL4 cell line, read-out: Haematopoietic & Lymphoid tumors, EC50 (μM) SUDHL4
[41] = HL-60 cell line, read-out: Haematopoietic & Lymphoid tumors, EC50 (μM) HL-60
[42] = JM1 cell line, read-out: Haematopoietic & Lymphoid tumors, EC50 (μM) JM1
[43] = JURKAT, Clone E6-1 cell line, read-out: Haematopoietic & Lymphoid tumors, EC50 (μM) JURKAT, Clone E6-1
[44] = JeKo-1 cell line, read-out: Haematopoietic & Lymphoid tumors, EC50 (μM) JeKo-1
[45] = KASUMI-1 cell line, read-out: Haematopoietic & Lymphoid tumors, EC50 (μM) KASUMI-1
[46] = Loucy cell line, read-out: Haematopoietic & Lymphoid tumors, EC50 (μM) Loucy
[47] = MOLT-4 cell line, read-out: Haematopoietic & Lymphoid tumors, EC50 (μM) MOLT-4
[48] = TF-1 cell line, read-out: Haematopoietic & Lymphoid tumors, EC50 (μM) TF-1
[49] = TOLEDO cell line, read-out: Haematopoietic & Lymphoid tumors, EC50 (μM) TOLEDO

EC50 [1, 8]: 0.102 µM
EC50 [1, 9]: 0.182 µM
EC50 [1, 10]: 0.065 µM
EC50 [1, 11]: 0.145 µM
EC50 [1, 12]: 0.058 µM
EC50 [1, 13]: 0.117 µM
pEC50 (DU4475): 6.84
pEC50 (MCF7): 6.31
pEC50 (T47D): 6.60
pEC50 (BT-549): 6.75
pEC50 (HCC1599): 7.00
pEC50 (ZR-75-1): 6.66
pEC50 (CAMA1): 6.52
pEC50 (MDA-MB-231-Luc): 6.71
pEC50 [2, 14]: 7.30
pEC50 [2, 15]: 6.97
pEC50 [2, 16]: 6.50
pEC50 (CLK3): 7.87
EC50 [3, 17]: 0.17 µM
EC50 [3, 18]: 0.121 µM
EC50 [3, 19]: 0.234 µM
EC50 [3, 20]: 0.11 µM
pEC50 [4, 21]: 6.60
pEC50 [4, 22]: 6.70
pEC50 [4, 23]: 6.49
pEC50 [4, 24]: 7.04
pEC50 [4, 25]: 6.77
pEC50 [4, 26]: 6.54
pEC50 [4, 27]: 6.85
pEC50 (CLK2): 8.54
pEC50 [5, 28]: 6.70
pEC50 [5, 29]: 6.71
pEC50 [5, 30]: 6.85
pEC50 [5, 31]: 6.48
pEC50 [5, 32]: 6.59
EC50 [6, 33]: 0.275 µM
EC50 [6, 34]: 0.173 µM
EC50 [6, 35]: 0.197 µM
EC50 [6, 36]: 0.105 µM
EC50 [7, 37]: 0.185 µM
EC50 [7, 38]: 0.033 µM
EC50 [7, 39]: 0.065 µM
EC50 [7, 40]: 0.151 µM
EC50 [7, 41]: 0.409 µM
EC50 [7, 42]: 0.064 µM
EC50 [7, 43]: 0.353 µM
EC50 [7, 44]: 0.064 µM
EC50 [7, 45]: 0.129 µM
EC50 [7, 46]: 0.135 µM
EC50 [7, 47]: 0.196 µM
EC50 [7, 48]: 0.256 µM
EC50 [7, 49]: 0.087 µM
Structure (SMILES): Cc1ncc(-c2ccc3cnc(NC(=O)c4cnn(C5CCN(C)CC5)c4)cc3c2)o1 [Compound 83]
pEC50 (all 50 cell lines): 6.74

EC50 [1, 8]: 0.294 µM
EC50 [1, 9]: 0.537 µM
EC50 [1, 10]: 0.187 µM
EC50 [1, 11]: 0.229 µM
EC50 [1, 12]: 0.12 µM
EC50 [1, 13]: 0.383 µM
pEC50 (DU4475): 6.34
pEC50 (MCF7): 5.89
pEC50 (T47D): 5.99
pEC50 (BT-549): 6.26
pEC50 (HCC1599): 6.22
pEC50 (ZR-75-1): 6.08
pEC50 (CAMA1): 5.73
pEC50 (MDA-MB-231-Luc): 6.05
pEC50 [2, 14]: 6.47
pEC50 [2, 15]: 6.12
pEC50 [2, 16]: 5.66
pEC50 (CLK3): 7.30
EC50 [3, 17]: 0.71 µM
EC50 [3, 18]: 0.457 µM
EC50 [3, 19]: 0.806 µM
EC50 [3, 20]: 0.204 µM
pEC50 [4, 21]: 6.37
pEC50 [4, 22]: 6.17
pEC50 [4, 23]: 6.31
pEC50 [4, 24]: 6.50
pEC50 [4, 25]: 6.20
pEC50 [4, 26]: 6.18
pEC50 [4, 27]: 6.18
pEC50 (CLK2): 8.24
pEC50 [5, 28]: 6.13
pEC50 [5, 29]: 6.05
pEC50 [5, 30]: 6.09
pEC50 [5, 31]: 6.36
pEC50 [5, 32]: 5.91
EC50 [6, 33]: 0.973 µM
EC50 [6, 34]: 1.28 µM
EC50 [6, 35]: 0.649 µM
EC50 [6, 36]: 0.312 µM
EC50 [7, 37]: 0.854 µM
EC50 [7, 38]: 0.069 µM
EC50 [7, 39]: 0.361 µM
EC50 [7, 40]: 0.424 µM
EC50 [7, 41]: 1.78 µM
EC50 [7, 42]: 0.375 µM
EC50 [7, 43]: 0.699 µM
EC50 [7, 44]: 0.469 µM
EC50 [7, 45]: 0.197 µM
EC50 [7, 46]: 0.368 µM
EC50 [7, 47]: 1.22 µM
EC50 [7, 48]: 0.944 µM
EC50 [7, 49]: 0.584 µM
Structure (SMILES): Cn1ncc(-c2ccc3cnc(NC(=O)C4CC5(C4)CN(CCF)C5)cc3c2)c1CN1CCCCC1 [Compound 77]
pEC50 (all 50 cell lines): 6.16

Reference: patent publication US20220062240A1, “METHODS OF TREATING CANCER USING A CLK INHIBITOR” (BioSplice Therapeutics, Inc., priority 2018, published 2022)
